Reference: US11827624B2, “Covalent immune recruiter compounds for immune cell recognition and associated uses” (McMaster University, priority 2020, dated 2023)

Assays:
[1] = Aqueous CIR stability test (LC-MS hydrolytic stability in PBS); type: physicochemical; conditions: PBS with 1% DMSO; ≈10 μM in 1% DMSO/PBS, room temperature; read-out: t1/2 (hydrolytic stability, intact CIR) (converted)
Method: Stability studies were conducted on a Sciex 4000 QTRAP, ESI-LCMS Triple Quadrupole Mass Spectrometer connected to an Agilent 1200 HPLC. All molecules were diluted 100× in PBS from a stable frozen DMSO stock solution reaching a final concentration of ≈10 μM in 1% DMSO/PBS and incubated for different amounts of time at room temperature, prior to LC-MS injection using a gradient of 95:5 to 5:95 (0.1% Formic Acid (aq)) water: ACN over 15 minutes. The integrations of the Absorbance values at 355-365 nm, were determined corresponding to the DNP moiety. The absorbance values corresponding to intact CIR were divided by the sum of intact and hydrolyzed CIR (the imidazole-DNP fragment) to determine fraction CIR intact changing with time. The fraction of intact CIR versus time was plotted on GraphPad Prism 8 using a “Dissociation—One Phase Decay” to extract the half life.
LC-MS analysis of the hydrolytic stability of CIRs 1, 3, and 4 in PBS was performed. The curve fit was done using a monoexponential decay which represents intact CIR plotted as a function of peak integration (corresponding to DNP absorbance) overtime.

HEK PSMA+cells = assay: Flow cytometry antibody recruitment to the target cell surface; type: cell-based, human
Method: CIR 3 or ARM 11 (640 nM) was incubated with 320 nM antibody (mmAb or mAb) at room temperature overnight. After overnight incubation, a dilution series (1:2, 1:3, 1:3, 1:3) was conducted using each condition stock which was then equilibrated for 90 minutes prior to addition to the assay well plate. HEK293 cells transfected with PSMA, were washed 3× and placed in a flow buffer containing 4% FBS, 0.5 mM EDTA/EGTA, 0.1% Sodium Azide, at a concentration of 2×10^6 Cells/mL. 75 μL of cells were added (150 000 Cells per sample) and kept on ice. 25 μL of antibody+CIR or antibody+ARM conditions prepared above were added to the target cells (experimental antibody concentrations: 80 nM, 40 nM, 13.3 nM, 4.4 nM, 1.5 nM). For the DNP Control, 4.5 mM was added to antibody for 5 minutes, then the CIR/ARM was added, and the solution incubated overnight. […]
Elimination equilibrium of the ARM:antibody through a covalent linkage to CIRs, and its impact on total antibody recruitment to target cells, at different therapeutically relevant antibody concentrations was next evaluated. […] This leads to increases in the mean fluorescence intensity (MFI) of associated cell populations, detectable in flow cytometry.
Antibody recruitment to the cell surface is proportional to the mean fluorescence intensity (MFI) of cell populations, bound to mmAb antibody complexes comprising CIR 3 or ARM 11. […]

With `O=C(O)CC[C@H](NC(=O)N[C@@H](CCCCNC(=O)NCCOCCOCCOCCOCCOCCOCCOCCOC(=O)n1cnc(CCNC(=O)CNc2ccc([N+](=O)[O-])cc2[N+](=O)[O-])c1)C(=O)O)C(=O)O` [CIR 3] as the compound, how does the half-life [1] read?
Its half-life is about 12 h.

What about the “total antibody recruitment to the target cell surface (MFI)” value (HEK PSMA+cells; higher antibody concentrations (40-80 nM)) of the same compound?
Its value is “comparable efficiencies”.

And the “total antibody recruitment to the target cell surface (MFI)” value (HEK PSMA+cells; sub-saturating mAb or mmAb (<40 nM), 37° C.)?
Its value is “more total antibody recruitment to the target cell surface compared to ARM 11”.
